Measured values from patent US10435399B2, “HDAC6 inhibitory heterocyclic compound” (TAKEDA PHARMACEUTICAL COMPANY LIMITED, priority 2017, dated 2019).

Biological target: T1, HDAC6 enzyme (Homo sapiens, UniProt Q9UBN7)
T1 construct: transducing full length HDAC6 gene into Sf-9 insect cells; GST; purchased SignalChem; host or cells: Sf-9 insect cells
T1 sequence (Q9UBN7 1-1215): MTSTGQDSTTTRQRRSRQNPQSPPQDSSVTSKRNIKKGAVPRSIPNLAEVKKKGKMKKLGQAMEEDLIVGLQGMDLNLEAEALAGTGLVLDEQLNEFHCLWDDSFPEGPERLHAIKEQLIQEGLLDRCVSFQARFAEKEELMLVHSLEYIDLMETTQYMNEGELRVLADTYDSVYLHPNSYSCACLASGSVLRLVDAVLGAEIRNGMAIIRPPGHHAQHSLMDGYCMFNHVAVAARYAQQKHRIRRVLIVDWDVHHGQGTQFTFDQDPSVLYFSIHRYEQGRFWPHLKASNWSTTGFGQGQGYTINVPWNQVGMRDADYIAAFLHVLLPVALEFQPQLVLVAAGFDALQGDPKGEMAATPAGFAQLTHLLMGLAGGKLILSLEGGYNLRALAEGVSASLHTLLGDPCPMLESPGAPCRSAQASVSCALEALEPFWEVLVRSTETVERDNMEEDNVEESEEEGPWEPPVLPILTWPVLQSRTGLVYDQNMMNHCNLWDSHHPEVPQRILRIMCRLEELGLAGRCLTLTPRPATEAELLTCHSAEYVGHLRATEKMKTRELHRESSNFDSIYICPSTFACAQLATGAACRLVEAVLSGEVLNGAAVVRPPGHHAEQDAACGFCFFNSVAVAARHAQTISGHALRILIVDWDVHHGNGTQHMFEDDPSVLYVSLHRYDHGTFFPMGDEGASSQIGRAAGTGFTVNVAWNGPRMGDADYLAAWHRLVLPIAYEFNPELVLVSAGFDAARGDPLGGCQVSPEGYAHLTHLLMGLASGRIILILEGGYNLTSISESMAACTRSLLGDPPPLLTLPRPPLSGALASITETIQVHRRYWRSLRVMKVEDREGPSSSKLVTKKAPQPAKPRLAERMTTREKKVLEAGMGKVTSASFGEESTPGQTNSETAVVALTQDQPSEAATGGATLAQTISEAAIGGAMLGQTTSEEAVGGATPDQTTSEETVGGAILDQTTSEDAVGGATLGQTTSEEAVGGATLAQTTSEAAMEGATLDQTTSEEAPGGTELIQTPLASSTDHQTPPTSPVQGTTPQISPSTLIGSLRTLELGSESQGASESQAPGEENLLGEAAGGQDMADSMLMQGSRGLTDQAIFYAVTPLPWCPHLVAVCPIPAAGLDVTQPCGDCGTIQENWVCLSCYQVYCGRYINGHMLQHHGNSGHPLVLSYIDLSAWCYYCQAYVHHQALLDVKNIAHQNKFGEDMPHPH
Test: HDAC6 enzyme inhibitory activity (HDAC-Glo I/II Assay kit)
Assay type: biochemical
Settings: 10 μM; wells without enzyme = 100% inhibition; read-out: HDAC6 inhibitory rate (%) (10 μM)
How it was run: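 Luminescence read-out after 20 min reaction with HDAC-Glo substrate-developer, following 60 min room-temperature preincubation of compound with Sf-9-expressed, GST-purified full-length enzyme. Inhibition is relative to no-enzyme wells set as 100%.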

Row | Structure (SMILES) | inhibition at 10 µM [%]
1 | O=C1c2cc(-c3nnc(C(F)F)o3)cc(F)c2CN1C[C@H]1COCCN1S(=O)(=O)c1ccc(F)cc1 [Example 252, 6-(5-(difluoromethyl)-1,3,4-oxadiazol-2-yl)-4-fluoro-2-(((3S)-4-((4-fluorophenyl)-sulfonyl)morpholin-3-yl)-methyl)isoindolin-1-one] | 99
2 | O=C1c2cc(-c3nnc(C(F)F)o3)ccc2CN1c1cc(Cl)ccc1Br [Example 253, 2-(2-bromo-5-chlorophenyl)-6-(5-(difluoromethyl)-1,3,4-oxadiazol-2-yl)isoindolin-1-one] | 72
3 | O=C(O[C@@H]1CCCC[C@H]1N1Cc2ccc(-c3nnc(C(F)F)o3)cc2C1=O)N1CCCCC1 [Example 254, (1R,2R)-2-(6-(5-(difluoro-methyl)-1,3,4-oxadiazol-2-yl)-1-oxo-1,3-dihydro-2H-isoindol-2-yl)cyclohexyl piperidine-1-carboxylate] | 102
4 | CC(C)(C)OC(=O)N[C@H]1CCCC[C@H]1N1Cc2ccc(-c3nnc(C(F)F)o3)cc2C1=O [Example 255, tert-butyl ((1S,2R)-2-(6-(5-(difluoromethyl)-1,3,4-oxadiazol-2-yl)-1-oxo-1,3-dihydro-2H-isoindol-2-yl)cyclohexyl)carbamate] | 100
5 | N[C@H]1CCCC[C@H]1N1Cc2ccc(-c3nnc(C(F)F)o3)cc2C1=O [Example 256] | 91
6 | O=C1c2cc(-c3nnc(C(F)F)o3)ccc2CN1[C@@H]1CCCC[C@H]1NCC(F)(F)F [Example 257, 6-(5-(difluoromethyl)-1,3,4-oxadiazol-2-yl)-2-((1R,2R)-2-((2,2,2-trifluoroethyl)amino)-cyclohexyl)isoindolin-1-one] | 101
7 | CC(F)(F)C(=O)N[C@H]1CCCC[C@H]1N1Cc2ccc(-c3nnc(C(F)F)o3)cc2C1=O [Example 258, N-((1S,2R)-2-(6-(5-(difluoro-methyl)-1,3,4-oxadiazol-2-yl)-1-oxo-1,3-dihydro-2H-isoindol-2-yl)cyclohexyl)-2,2-difluoro-propanamide] | 101
8 | O=C1c2cc(-c3nnc(C(F)F)o3)ccc2CN1[C@@H]1CCCC[C@@H]1NC(=O)C1(C(F)(F)F)CC1 [Example 259, N-((1S,2R)-2-(6-(5-(difluoro-methyl)-1,3,4-oxadiazol-2-yl)-1-oxo-1,3-dihydro-2H-isoindol-2-yl)cyclohexyl)-1-(trifluoromethyl)cyclopro-panecarboxamide] | 101
9 | CC(C)(C(=O)N[C@H]1CCCC[C@H]1N1Cc2ccc(-c3nnc(C(F)F)o3)cc2C1=O)C(F)(F)F [Example 260, N-((1S,2R)-2-(6-(5-(difluoro-methyl)-1,3,4-oxadiazol-2-yl)-1-oxo-1,3-dihydro-2H-isoindol-2-yl)cyclohexyl)-3,3,3-trifluoro-2,2-dimethyl-propanamide] | 98
10 | O=C1c2cc(-c3nnc(C(F)F)o3)ccc2CN1[C@@H]1CCCC[C@@H]1NC(=O)C(F)(F)C(F)(F)F [Example 261, N-((1S,2R)-2-(6-(5-(difluoro-methyl)-1,3,4-oxadiazol-2-yl)-1-oxo-1,3-dihydro-2H-isoindol-2-yl)cyclohexyl)-2,2,3,3,3-pentafluoropropan-amide] | 99
11 | COC(=O)N[C@H]1CCCC[C@H]1N1Cc2ccc(-c3nnc(C(F)F)o3)cc2C1=O [Example 262, methyl ((1S,2R)-2-(6-(5-(difluoromethyl)-1,3,4-oxadiazol-2-yl)-1-oxo-1,3-dihydro-2H-isoindol-2-yl)cyclohexyl)carbamate] | 98
12 | CC(C)(C)OC(=O)N1CCC[C@@H]1CN1Cc2c(F)cc(-c3nnc(C(F)F)o3)cc2C1=O [Example 263, tert-butyl (2R)-2-((6-(5-(difluoromethyl)-1,3,4-oxadiazol-2-yl)-4-fluoro-1-oxo-1,3-dihydro-2H-isoindol-2-yl)methyl)-pyrrolidine-1-carboxylate] | 99
13 | CC(=O)N(c1ccccn1)[C@@H]1CCCC[C@H]1N1Cc2ccc(-c3nnc(C(F)F)o3)cc2C1=O [Example 264, N-((1R,2R)-2-(6-(5-(difluoromethyl)-1,3,4-oxadiazol-2-yl)-1-oxo-1,3-dihydro-2H-isoindol-2-yl)cyclohexyl)-N-(pyridin-2-yl) acetamide] | 101
14 | O=C1c2cc(-c3nnc(C(F)F)o3)cc(F)c2CN1C[C@H]1COCCN1S(=O)(=O)c1cccc(F)c1 [Example 265, 6-(5-(difluoromethyl)-1,3,4-oxadiazol-2-yl)-4-fluoro-2-(((3S)-4-((3-fluorophenyl)-sulfonyl)morpholin-3-yl)-methyl)isoindolin-1-one] | 98
15 | COc1cccc(CN2Cc3ncc(-c4nnc(C(F)F)o4)cc3C2=O)c1 [Example 266, 3-(5-(difluoromethyl)-1,3,4-oxadiazol-2-yl)-6-(3-methoxybenzyl)-6,7-dihydro-5H-pyrrolo[3,4-b]-pyridin-5-one] | 99
16 | N#Cc1cccc(-c2ccc(Cl)cc2N2Cc3ccc(-c4nnc(C(F)F)o4)cc3C2=O)c1 [Example 267, 4′-chloro-2′-(6-(5-(difluoro-methyl)-1,3,4-oxadiazol-2-yl)-1-oxo-1,3-dihydro-2H-isoindol-2-yl)biphenyl-3-carbonitrile] | 100
17 | CC(C)(OC(=O)N[C@@H]1CCCC[C@H]1N1Cc2ncc(-c3nnc(C(F)F)o3)cc2C1=O)C(F)(F)F [Example 268, 1,1,1-trifluoro-2-methylpropan-2-yl ((1R,2R)-2-(3-(5-(difluoromethyl)-1,3,4-oxadiazol-2-yl)-5-oxo-5,7-dihydro-6H-pyrrolo[3,4-b]pyridin-6-yl)cyclohexyl)carbamate] | 100

Other lines, results leading:

Row | inhibition at 10 µM [%] | Structure (SMILES)
18 | 99 | O=C1CCCN1CC(c1ccccc1)N1Cc2ncc(-c3nnc(C(F)F)o3)cc2C1=O (stereo not shown) [Example 269, 3-(5-(difluoromethyl)-1,3,4-oxadiazol-2-yl)-6-(2-(2-oxopyrrolidin-1-yl)-1-phenylethyl)-6,7-dihydro-5H-pyrrolo[3,4-b]pyridin-5-one]
19 | 99 | Cn1cc(-c2cc(Cl)ccc2N2Cc3ccc(-c4nnc(C(F)F)o4)cc3C2=O)cn1 [Example 270, 2-(4-chloro-2-(1-methyl-1H-pyrazol-4-yl)phenyl)-6-(5-(difluoromethyl)-1,3,4-oxadiazol-2-yl)-isoindolin-1-one]
20 | 100 | Cn1cc(-c2cc(F)ccc2N2Cc3ccc(-c4nnc(C(F)F)o4)cc3C2=O)cn1 [Example 271, 6-(5-(difluoromethyl)-1,3,4-oxadiazol-2-yl)-2-(4-fluoro-2-(1-methyl-1H-pyrazol-4-yl)phenyl)isoindolin-1-one]
21 | 100 | COc1ccc(CN2Cc3ncc(-c4nnc(C(F)F)o4)cc3C2=O)c(OC)c1 [Example 272, 3-(5-(difluoromethyl)-1,3,4-oxadiazol-2-yl)-6-(2,4-dimethoxybenzyl)-6,7-dihydro-5H-pyrrolo-[3,4-b]pyridin-5-one]
22 | 97 | O=C1c2cc(-c3nnc(C(F)F)o3)cnc2CN1Cc1cccc(F)c1 [Example 273, 3-(5-(difluoromethyl)-1,3,4-oxadiazol-2-yl)-6-(3-fluorobenzyl)-6,7-dihydro-5H-pyrrolo[3,4-b]pyridin-5-one]
23 | 99 | O=C1c2cc(-c3nnc(C(F)F)o3)cc(F)c2CN1C[C@H]1CCCN1S(=O)(=O)C1CC1 [Example 274, 2-(((2R)-1-(cyclopropyl-sulfonyl)pyrrolidin-2-yl)methyl)-6-(5-(difluoro-methyl)-1,3,4-oxadiazol-2-yl)-4-fluoroisoindolin-1-one]
24 | 98 | CC(C)(C)OC(=O)N1CCC[C@H]1CN1Cc2c(F)cc(-c3nnc(C(F)F)o3)cc2C1=O [Example 275, tert-butyl (2S)-2-((6-(5-(difluoromethyl)-1,3,4-oxadiazol-2-yl)-4-fluoro-1-oxo-1,3-dihydro-2H-isoindol-2-yl)methyl)-pyrrolidine-1-carboxylate]
25 | 98 | O=C1c2cc(-c3nnc(C(F)F)o3)ccc2CN1c1ccccc1-c1ccc(F)cc1 [Example 276, 6-(5-(difluoromethyl)-1,3,4-oxadiazol-2-yl)-2-(4′-fluorobiphenyl-2-yl)-isoindolin-1-one]
